Test results published in patent publication US10669287B2, “Curcumin-boron complex and pharmaceutical containing same” (JAPAN SCIENCE AND TECHNOLOGY AGENCY, priority 2016, dated 2020).

Columns and labels:
[1] = test system: Arctic Aβ1-42; experiment: Oxygenation reaction in mouse brain extract, Test Example 6; format: biochemical; conditions: mouse brain lysate, light 780 nm
Experimental: The brain excised from an eight-month-old App knock-in (App^NL-C-F/NL-C-F) mouse (Alzheimer's model mouse) was separated into the cerebral cortex, the hippocampus, and the residual brain tissues. The cerebral cortex and the hippocampus were homogenized together in a phosphate buffer saline, and the suspension was stored at −80° C. […] At an arbitrary point of time, an arbitrary aliquot of the reaction mixture was diluted with formic acid to a final concentration of 70%, concentrated, and redissolved in a 6 M aqueous solution of urea.

[2] = Maximum wavelength λmax of photocatalysts; format: physicochemical; conditions: Table 2

O=C(O)CCCCCN1CCCc2cc(/C=C/C3=[O+][B-](F)(C(F)(F)C(F)(F)F)OC(/C=C/c4cc5c6c(c4)CCCN6CCC5)=C3Br)ccc21 (stereo not shown) [Compound E]
decrease of peak intensity (conversion) of Arctic Aβ1-42 ([1]; 30 minutes): 43%
decrease of peak intensity (conversion) of Arctic Aβ1-42 ([1]; 60 minutes): 60%
decrease of peak intensity (conversion) of Arctic Aβ1-42 ([1]; 150 minutes): 83%
Maximum wavelength λmax (nm) [2]: 639 nm
